{"source": "patent US20200399390A1", "about": "“METHODS FOR PRODUCING LYMPHOCYTE PROGENITORS” (MURDOCH CHILDRENS RESEARCH INSTITUTE, priority 2017, published 2020)", "test_system": "B-lymphocytes", "assay": "B-cell progenitor production by co-culture on OP9 stromal cells", "assay_type": "cell-based, human", "procedure": "Co-Culture Systems Involving DLL4 Stromal or OP9 Stromal Cells for Production of B-Cell Progenitors\nCo-culture systems generally used alpha-MEM medium supplemented with 10˜20% fetal calf serum (FCS), Penicillin Streptomycin, L-glutamine and 2-Mercaptoethanol (0.1 mM).\nStromal cells were seeded into an appropriate number of wells of a multi-well plate and allowed to grow until they reached confluency.\nAt around day 15, cells were transferred onto confluent layers of OP9 or OP9-DLL4 stromal cells and cultured in the following conditions:\nMedium: alpha-MEM medium supplemented with 5˜10% FCS, penicillin streptomycin, L-glutamine and 2-mercaptoethanol (0.1 mM)\nCytokines: SCF (50 ng/mL) and DAPT (10 uM).\nMedia was changed every 4˜5 days.\nEvery 7˜10 days, the culture was passaged onto new wells coated with fresh layers of stromal cells.\nAs an alternative to using OP9 stromal cells expressing DLL4 (DLL4-0P9) for B-cell progenitor production according to Example 1, which requires addition of a NOTCH1 inhibitor such as DAPT to the culture medium to permit B-cell development, OP9 stromal cells (without DLL4) can also be used (FIG. 20). This system generates a larger number of B-cell progenitors (FIG. 20B), a small fraction of which (˜1%) are IgM^+ (FIG. 20B). This frequency of IgM^+ cells is similar to that seen with cord blood CD34^+ cells cultured in similar systems.", "data": [{"smiles": "C[C@H](NC(=O)Cc1cc(F)cc(F)c1)C(=O)N[C@H](C(=O)OC(C)(C)C)c1ccccc1", "note": "[DAPT, N—[N-(3,5-difluorophenacetyl)-L-alanyl]-S-phenylglycine t-butyl ester]", "values": [{"measurement": "effect of presence of DAPT on development of B-lymphocytes", "setting": "OP9 stromal cell co-culture, SCF (50 ng/mL) and DAPT (10 uM), from around day 15", "result": "enhances the development of B-lymphocytes"}, {"measurement": "effect of addition of DAPT on B-cell progenitor generation", "setting": "OP9 stromal cells (without DLL4), FIG. 20", "result": "further enhanced"}]}]}
